Key:
human CYP2J2 = target: T1, human CYP2J2 (Homo sapiens, UniProt P51589); experiment: P450 spectral binding titration
T1 sequence (P51589 1-502): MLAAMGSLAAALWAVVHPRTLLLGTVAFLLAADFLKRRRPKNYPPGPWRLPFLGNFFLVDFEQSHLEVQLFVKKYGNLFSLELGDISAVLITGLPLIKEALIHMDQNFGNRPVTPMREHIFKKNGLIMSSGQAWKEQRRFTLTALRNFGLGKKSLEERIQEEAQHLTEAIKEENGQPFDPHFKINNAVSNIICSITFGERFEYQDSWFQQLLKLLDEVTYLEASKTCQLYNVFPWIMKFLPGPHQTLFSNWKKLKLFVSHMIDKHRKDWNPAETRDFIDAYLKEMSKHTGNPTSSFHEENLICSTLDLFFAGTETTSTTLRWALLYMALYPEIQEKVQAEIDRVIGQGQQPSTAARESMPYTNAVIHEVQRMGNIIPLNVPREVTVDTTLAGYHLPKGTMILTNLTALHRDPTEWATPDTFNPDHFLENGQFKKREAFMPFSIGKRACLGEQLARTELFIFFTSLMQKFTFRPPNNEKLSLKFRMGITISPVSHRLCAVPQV

[1] = target: T2, Fatty Acid Amide Hydrolase (FAAH) (Homo sapiens, UniProt O00519); experiment: fluorescence assay of AMC release from anandamide-AMC, 4-parameter logistic fit; format: biochemical
T2 sequence (O00519 1-579): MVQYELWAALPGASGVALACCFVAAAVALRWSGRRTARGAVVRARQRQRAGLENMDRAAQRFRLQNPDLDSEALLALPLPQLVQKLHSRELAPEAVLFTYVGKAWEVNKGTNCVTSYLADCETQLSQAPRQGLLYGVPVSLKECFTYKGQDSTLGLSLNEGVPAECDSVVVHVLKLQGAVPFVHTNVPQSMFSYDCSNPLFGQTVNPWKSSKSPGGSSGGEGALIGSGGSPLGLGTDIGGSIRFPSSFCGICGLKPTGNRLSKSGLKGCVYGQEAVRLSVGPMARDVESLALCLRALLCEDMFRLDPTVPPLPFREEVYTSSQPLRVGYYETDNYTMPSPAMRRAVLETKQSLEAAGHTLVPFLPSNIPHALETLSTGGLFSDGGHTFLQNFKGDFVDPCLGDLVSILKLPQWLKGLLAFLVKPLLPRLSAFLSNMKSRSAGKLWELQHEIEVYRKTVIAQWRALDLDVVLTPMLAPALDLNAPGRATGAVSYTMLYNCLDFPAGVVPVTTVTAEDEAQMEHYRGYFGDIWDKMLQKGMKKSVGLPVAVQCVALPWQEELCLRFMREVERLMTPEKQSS

CYP3A4 = CYP3A4 (Homo sapiens, UniProt P08684); experiment: P450 spectral binding titration
CYP3A4, sequence (P08684 2-503): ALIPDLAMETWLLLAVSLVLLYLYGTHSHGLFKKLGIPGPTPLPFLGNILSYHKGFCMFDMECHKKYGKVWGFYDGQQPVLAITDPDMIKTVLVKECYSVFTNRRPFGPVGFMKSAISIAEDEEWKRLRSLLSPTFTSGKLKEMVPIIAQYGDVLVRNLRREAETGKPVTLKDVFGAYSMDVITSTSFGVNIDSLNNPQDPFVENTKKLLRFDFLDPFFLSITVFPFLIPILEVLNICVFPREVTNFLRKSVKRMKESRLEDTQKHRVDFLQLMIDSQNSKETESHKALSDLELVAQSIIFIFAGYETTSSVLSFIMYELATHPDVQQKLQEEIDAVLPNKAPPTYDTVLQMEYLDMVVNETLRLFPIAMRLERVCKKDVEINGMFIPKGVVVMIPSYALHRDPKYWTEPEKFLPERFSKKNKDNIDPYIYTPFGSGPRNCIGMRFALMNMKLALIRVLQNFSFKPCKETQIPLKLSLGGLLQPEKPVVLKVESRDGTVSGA

| SMILES | Kd (human CYP2J2) | IC50 [1] | Kd (CYP3A4) |
| --- | --- | --- | --- |
| CCCCC/C=C\C/C=C\C/C=C\C/C=C\CCCC(=O)NCC(=O)O [NA-Gly] | 3.3 ± 0.31 µM | 14.2 ± 1.07 µM | – |
| CC/C=C\C/C=C\C/C=C\C/C=C\C/C=C\C/C=C\CCC(=O)NCC(=O)O [DHA-Gly] | 2.47 ± 0.26 µM | 35.3 ± 1.82 µM | 20.3 ± 6.13 µM |
